In patent publication US11111251B2, “Positive allosteric modulators of the muscarinic acetylcholine receptor M1” (Vanderbilt University, priority 2016, dated 2021):

Target: T1, human mAChR M1 (Homo sapiens, UniProt P11229)
T1 sequence (P11229 1-460): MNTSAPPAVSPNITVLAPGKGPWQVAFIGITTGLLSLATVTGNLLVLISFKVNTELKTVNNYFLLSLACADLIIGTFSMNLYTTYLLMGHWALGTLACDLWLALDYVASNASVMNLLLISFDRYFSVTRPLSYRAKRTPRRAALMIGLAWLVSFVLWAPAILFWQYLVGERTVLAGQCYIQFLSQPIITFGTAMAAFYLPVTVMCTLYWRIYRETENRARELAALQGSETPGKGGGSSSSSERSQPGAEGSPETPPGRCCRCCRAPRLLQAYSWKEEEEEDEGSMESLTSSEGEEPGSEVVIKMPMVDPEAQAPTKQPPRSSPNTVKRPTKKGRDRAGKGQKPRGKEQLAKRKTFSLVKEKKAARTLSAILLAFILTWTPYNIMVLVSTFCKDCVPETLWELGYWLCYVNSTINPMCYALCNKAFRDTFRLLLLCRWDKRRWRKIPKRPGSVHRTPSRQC
Experiment: mAChR M1 cell-based functional assay: calcium mobilization, positive allosteric modulator mode (increase in EC20 acetylcholine response)
Conditions: Table 2, human M1; for EC50: read-out: Human M1 EC50; for Emax: read-out: Human M1 Emax (%)
In short: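 PAM potency reflects the concentration-dependent increase in calcium response to an EC20 acetylcholine challenge, given 144 s into a 300 s read after compound addition at 4 s (EC80 follows at 230 s). Cells were hM1-expressing CHO-K1, loaded 50 min with Fluo-4 AM. Curves used 11 points at 1:3 dilutions and four-parameter logistic fitting.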

SMILES | EC50 [nM] | Emax [%]
O=C(N[C@H]1CCCC[C@@H]1O)c1cc(Cc2c(F)cc(-c3cscn3)cc2F)c2sccc2n1 [Compound 273, 7-[(2,6-difluoro-4-thiazol-4-yl-phenyl)methyl]-N-[(1S,2S)-2-hydroxycyclohexyl]thieno[3,2-b]pyridine-5-carboxamide] | 272 | 73.6
O=C(N[C@@H]1CC[C@H]1O)c1cc(Cc2c(F)cc(-c3cscn3)cc2F)c2sccc2n1 [Compound 274, 7-[(2,6-difluoro-4-thiazol-4-yl-phenyl)methyl]-N-[(1R,2R)-2-hydroxycyclobutyl]thieno[3,2-b]pyridine-5-carboxamide] | > 10000 | 46.8
O=C(NC1CC2(COC2)C1)c1cc(Cc2ccc(-n3cccn3)cc2)c2sccc2n1 [Compound 275, N-(2-oxaspiro[3.3]heptan-6-yl)-7-[(4-pyrazol-1-ylphenyl)methyl]thieno[3,2-b]pyridine-5-carboxamide] | 43 | 69.9
CC1(NC(=O)c2cc(Cc3ccc(-n4cccn4)cc3)c3sccc3n2)COC1 [Compound 276, N-(3-methyloxetan-3-yl)-7-[(4-pyrazol-1-ylphenyl)methyl]thieno[3,2-b]pyridine-5-carboxamide] | 5500 | 64.5
O=C(N[C@@H]1CCOC1)c1cc(Cc2ccc(-n3cccn3)cc2)c2sccc2n1 [Compound 277, 7-[(4-pyrazol-1-ylphenyl)methyl]-N-[(3R)-tetrahydrofuran-3-yl]thieno[3,2-b]pyridine-5-carboxamide] | 627 | 67.9
O=C(N[C@H]1CCOC1)c1cc(Cc2ccc(-n3cccn3)cc2)c2sccc2n1 [Compound 278, 7-[(4-pyrazol-1-ylphenyl)methyl]-N-[(3S)-tetrahydrofuran-3-yl]thieno[3,2-b]pyridine-5-carboxamide] | 485 | 73.4
O=C(NC1COC1)c1cc(Cc2ccc(-n3cccn3)cc2)c2sccc2n1 [Compound 279, N-(oxetan-3-yl)-7-[(4-pyrazol-1-ylphenyl)methyl]thieno[3,2-b]pyridine-5-carboxamide] | 1050 | 68.7
O=C(NC1CC(F)C1)c1cc(Cc2ccc(-n3cccn3)cc2)c2sccc2n1 (centres unmarked) [Compound 280, N-(3-fluorocyclobutyl)-7-[(4-pyrazol-1-ylphenyl)methyl]thieno[3,2-b]pyridine-5-carboxamide] | 297 | 71.8
O=C(NC1CC(F)(F)C1)c1cc(Cc2ccc(-n3cccn3)cc2)c2sccc2n1 [Compound 281, N-(3,3-difluorocyclobutyl)-7-[(4-pyrazol-1-ylphenyl)methyl]thieno[3,2-b]pyridine-5-carboxamide] | 256 | 55
N#CC1(NC(=O)c2cc(Cc3ccc(-n4cccn4)cc3)c3sccc3n2)CC1 [Compound 282, N-(1-cyanocyclopropyl)-7-[(4-pyrazol-1-ylphenyl)methyl]thieno[3,2-b]pyridine-5-carboxamide] | 601 | 40
CC(C)(C#N)NC(=O)c1cc(Cc2ccc(-n3cccn3)cc2)c2sccc2n1 [Compound 283, N-(1-cyano-1-methyl-ethyl)-7-[(4-pyrazol-1-ylphenyl)methyl]thieno[3,2-b]pyridine-5-carboxamide] | > 10000 | 43.1
O=C(NCC1CCO1)c1cc(Cc2ccc(-n3cccn3)cc2)c2sccc2n1 (centres unmarked) [Compound 284, N-(oxetan-2-ylmethyl)-7-[(4-pyrazol-1-ylphenyl)methyl]thieno[3,2-b]pyridine-5-carboxamide] | 67.7 | 66.9
O=C(NCC1CCOC1)c1cc(Cc2ccc(-n3cccn3)cc2)c2sccc2n1 (centres unmarked) [Compound 285, 7-[(4-pyrazol-1-ylphenyl)methyl]-N-(tetrahydrofuran-3-ylmethyl)thieno[3,2-b]pyridine-5-carboxamide] | 95.3 | 64.3
O=C(NC[C@@H]1CCCO1)c1cc(Cc2ccc(-n3cccn3)cc2)c2sccc2n1 [Compound 286, 7-[(4-pyrazol-1-ylphenyl)methyl]-N-[[(2S)-tetrahydrofuran-2-yl]methyl]thieno[3,2-b]pyridine-5-carboxamide] | 203 | 69.3
O=C(NC[C@H]1CCCO1)c1cc(Cc2ccc(-n3cccn3)cc2)c2sccc2n1 [Compound 287, 7-[(4-pyrazol-1-ylphenyl)methyl]-N-[[(2R)-tetrahydrofuran-2-yl]methyl]thieno[3,2-b]pyridine-5-carboxamide] | 49.4 | 64.9
O=C(NCC1CCOCC1)c1cc(Cc2ccc(-n3cccn3)cc2)c2sccc2n1 [Compound 288, 7-[(4-pyrazol-1-ylphenyl)methyl]-N-(tetrahydropyran-4-ylmethyl)thieno[3,2-b]pyridine-5-carboxamide] | 97.4 | 74.4

SMILES | EC50 [nM] | Emax [%]
O=C(NCC1CCCCO1)c1cc(Cc2ccc(-n3cccn3)cc2)c2sccc2n1 (centres unmarked) [Compound 289, 7-[(4-pyrazol-1-ylphenyl)methyl]-N-(tetrahydropyran-2-ylmethyl)thieno[3,2-b]pyridine-5-carboxamide] | 1160 | 80.7
O=C(N[C@H]1CCCNC1)c1cc(Cc2ccc(-n3cccn3)cc2)c2sccc2n1 [Compound 290, N-[(3S)-3-piperidyl]-7-[(4-pyrazol-1-ylphenyl)methyl]thieno[3,2-b]pyridine-5-carboxamide] | 5340 | 65.3
CC1(NC(=O)c2cc(Cc3ccc(-n4cccn4)cc3)c3sccc3n2)CCCNC1 (centres unmarked) [Compound 291, N-(3-methyl-3-piperidyl)-7-[(4-pyrazol-1-ylphenyl)methyl]thieno[3,2-b]pyridine-5-carboxamide] | 1120 | 64.3
O=C(NCC1CCN1)c1cc(Cc2ccc(-n3cccn3)cc2)c2sccc2n1 (centres unmarked) [Compound 292, N-(azetidin-2-ylmethyl)-7-[(4-pyrazol-1-ylphenyl)methyl]thieno[3,2-b]pyridine-5-carboxamide] | 225 | 81.8
O=C(N[C@H]1CCOC[C@@H]1O)c1cc(Cc2ccc(-n3cccn3)cc2)c2sccc2n1 [Compound 293, N-[(3R,4S)-3-hydroxytetrahydropyran-4-yl]-7-[(4-pyrazol-1-ylphenyl)methyl]thieno[3,2-b]pyridine-5-carboxamide] | 6 | 61.6
O=C(N[C@H]1CCOC[C@@H]1O)c1cc(Cc2ccc(-c3nccs3)cc2)c2sccc2n1 [Compound 294] | 15.7 | 71.1
O=C(NC1CCOCC1)c1cc(Cc2ccc(-c3nccs3)cc2)c2sccc2n1 [Compound 296] | 273 | 79.9
O=C(N[C@H]1CC[C@@H]1O)c1cc(Cc2ccc(-c3nccs3)cc2)c2sccc2n1 [Compound 297, N-[(1S,2S)-2-hydroxycyclobutyl]-7-[(4-thiazol-2-ylphenyl)methyl]thieno[3,2-b]pyridine-5-carboxamide] | 225 | 76.4
O=C(NCC1CCOCC1)c1cc(Cc2ccc(-c3nccs3)cc2)c2sccc2n1 [Compound 298, N-(tetrahydropyran-4-ylmethyl)-7-[(4-thiazol-2-ylphenyl)methyl]thieno[3,2-b]pyridine-5-carboxamide] | 368 | 45.5
Cc1nc(-c2ccc(Cc3cc(C(=O)NC4CC(C)OC(C)C4)nc4ccsc34)cc2)co1 (centres unmarked) [Compound 299, N-(2,6-dimethyltetrahydropyran-4-yl)-7-[[4-(2-methyloxazol-4-yl)phenyl]methyl]thieno[3,2-b]pyridine-5-carboxamide] | 702 | 75
Cc1nc(-c2ccc(Cc3cc(C(=O)NC4CCOC(C)(C)C4)nc4ccsc34)cc2)co1 (centres unmarked) [Compound 300, N-(2,2-dimethyltetrahydropyran-4-yl)-7-[[4-(2-methyloxazol-4-yl)phenyl]methyl]thieno[3,2-b]pyridine-5-carboxamide] | 225 | 75.3
Cc1csc2c(Cc3ccc(-c4ccn(C)n4)cc3)cc(C(=O)NC3CCOCC3)nc12 [Compound 302, 3-methyl-7-[[4-(1-methylpyrazol-3-yl)phenyl]methyl]-N-tetrahydropyran-4-yl-thieno[3,2-b]pyridine-5-carboxamide] | 405 | 69.9
Cc1csc2c(Cc3ccc(-c4ccn(C)n4)cc3)cc(C(=O)N[C@H]3CCC[C@@H]3O)nc12 [Compound 303, N-[(1S,2S)-2-hydroxycyclopentyl]-3-methyl-7-[[4-(1-methylpyrazol-3-yl)phenyl]methyl]thieno[3,2-b]pyridine-5-carboxamide] | 366 | 70.7
Cc1csc2c(Cc3ccc(-c4ccn(C)n4)cc3)cc(C(=O)NC3CC4(COC4)C3)nc12 [Compound 304, 3-methyl-7-[[4-(1-methylpyrazol-3-yl)phenyl]methyl]-N-(2-oxaspiro[3.3]heptan-6-yl)thieno[3,2-b]pyridine-5-carboxamide] | 568 | 72.3
Cc1csc2c(Cc3ccc(-c4ccn(C)n4)cc3)cc(C(=O)N[C@@H]3CCOC3)nc12 [Compound 305, 3-methyl-7-[[4-(1-methylpyrazol-3-yl)phenyl]methyl]-N-[(3R)-tetrahydrofuran-3-yl]thieno[3,2-b]pyridine-5-carboxamide] | 2850 | 76.3
